Consider five cell lines from the supplement of paper PMC10307832.

What all share (assay): relative viability (nuclei count vs DMSO), 5 days (fraction); higher = more cells survive
Compound in test [1]: C1=CC(=CC=C1NC(=S)NNC2=C(C=C(C=C2[N+](=O)[O-])C(F)(F)F)[N+](=O)[O-])F [Kobe2602] + Cc1nc(NC(=O)N2CCC[C@H]2C(N)=O)sc1-c1ccnc(C(C)(C)C(F)(F)F)c1 [Alpelisib] (partner 2 µM)
In short, it runs like this:
(§1)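 Lung cancer cell lines in 1536-well plates got either a single drug or a fixed anchor-drug dose together with five library-drug doses (not always all listed) in √10 steps, by pin tool, on the day after seeding. Nuclei were counted after 5 days, and relative viability is the treated-to-vehicle ratio of nuclei counts. Values are medians of duplicate plates.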

Compound in test [2]: C1=CC(=CC=C1NC(=S)NNC2=C(C=C(C=C2[N+](=O)[O-])C(F)(F)F)[N+](=O)[O-])F [Kobe2602] + O=C(c1cc(Cc2n[nH]c(=O)c3ccccc23)ccc1F)N1CCN(C(=O)C2CC2)CC1 [Olaparib] (partner 8 µM)
In outline:
as §1

Compound in test [3]: COc1cc2nccc(Oc3ccc(NC(=O)C4(C(=O)Nc5ccc(F)cc5)CC4)cc3)c2cc1OC [Cabozantinib] + CC(=O)Nc1cccc(-n2c(=O)n(C3CC3)c(=O)c3c(Nc4ccc(I)cc4F)n(C)c(=O)c(C)c32)c1 [Trametinib] (partner 0.02 µM)
In short, it runs like this: as §1

Compound in test [4]: COc1cc2nccc(Oc3ccc(NC(=O)C4(C(=O)Nc5ccc(F)cc5)CC4)cc3)c2cc1OC [Cabozantinib] + CS(=O)(=O)CCNCc1ccc(-c2ccc3ncnc(Nc4ccc(OCc5cccc(F)c5)c(Cl)c4)c3c2)o1 [Lapatinib] (partner 2 µM)
In outline: as §1

On to NCI-H2347, for which the relative viability in test [1] (first compound 0.2 µM) is 0.972; in test [1] (first compound 0.6325 µM), 1.01; in test [1] (first compound 2 µM) it was 0.969; in test [1] (first compound 6.325 µM), 1.08; in test [1] (first compound 20 µM), 1.09; in test [2] (first compound 0.2 µM), 0.603. Further, the relative viability in test [2] (first compound 0.6325 µM) is 0.548; in test [2] (first compound 2 µM), 0.559; in test [2] (first compound 6.325 µM), 0.53; in test [2] (first compound 20 µM), 0.607; in test [3] (first compound 0.02 µM), 0.252; in test [3] (first compound 0.06325 µM) it was 0.296. In addition, the relative viability stood at 0.269 in test [3] (first compound 0.2 µM); 0.249 in test [3] (first compound 0.6325 µM); 0.268 in test [3] (first compound 2 µM); 0.883 in test [4] (first compound 0.02 µM); 0.951 in test [4] (first compound 0.06325 µM); 1.03 in test [4] (first compound 0.2 µM). The relative viability in test [4] (first compound 0.6325 µM) is 0.824; in test [4] (first compound 2 µM), 0.925.
On to NCI-H2405, for which the relative viability stood at 0.748 in test [1] (first compound 0.2 µM); 0.94 in test [1] (first compound 0.6325 µM); 0.721 in test [1] (first compound 2 µM); 0.896 in test [1] (first compound 6.325 µM); 0.831 in test [1] (first compound 20 µM); 0.915 in test [2] (first compound 0.2 µM). Further, the relative viability in test [2] (first compound 0.6325 µM) was determined as 0.874; in test [2] (first compound 2 µM), 0.868; in test [2] (first compound 6.325 µM), 0.905; in test [2] (first compound 20 µM) it was 0.909; in test [3] (first compound 0.02 µM), 0.658; in test [3] (first compound 0.06325 µM), 0.666. In addition, the relative viability was 0.615 in test [3] (first compound 0.2 µM); 0.59 in test [3] (first compound 0.6325 µM); 0.473 in test [3] (first compound 2 µM); 1.16 in test [4] (first compound 0.06325 µM); 1.2 in test [4] (first compound 0.2 µM); 1.1 in test [4] (first compound 0.6325 µM). The relative viability in test [4] (first compound 2 µM) worked out at 1.02.
With NCI-H3122, the relative viability is 0.807 in test [1] (first compound 0.2 µM); 0.753 in test [1] (first compound 0.6325 µM); 0.764 in test [1] (first compound 2 µM); 0.784 in test [1] (first compound 6.325 µM); 0.885 in test [1] (first compound 20 µM); 0.551 in test [2] (first compound 0.2 µM). Moreover, the relative viability in test [2] (first compound 0.6325 µM) turned out to be 0.602; in test [2] (first compound 2 µM), 0.621; in test [2] (first compound 6.325 µM) it was 0.56; in test [2] (first compound 20 µM), 0.619; in test [3] (first compound 0.02 µM), 0.192; in test [3] (first compound 0.06325 µM), 0.241. In addition, the relative viability in test [3] (first compound 0.2 µM) is 0.238; in test [3] (first compound 0.6325 µM), 0.238; in test [3] (first compound 2 µM), 0.281; in test [4] (first compound 0.02 µM), 1.01; in test [4] (first compound 0.06325 µM), 1.01; in test [4] (first compound 0.2 µM) it was 1.02. Moreover, the relative viability in test [4] (first compound 0.6325 µM) is 1.03; in test [4] (first compound 2 µM), 0.954.
In the case of PC-3 [JPC-3], the relative viability in test [1] (first compound 0.2 µM) turned out to be 1.05; in test [1] (first compound 0.6325 µM), 1.04; in test [1] (first compound 2 µM), 0.971; in test [1] (first compound 6.325 µM), 1.03; in test [1] (first compound 20 µM) it was 1.02; in test [2] (first compound 0.2 µM) it was 1.1. Also, the relative viability in test [2] (first compound 0.6325 µM) was found to be 1.22; in test [2] (first compound 2 µM), 1.13; in test [2] (first compound 6.325 µM), 1.19; in test [2] (first compound 20 µM) it was 1.13; in test [3] (first compound 0.02 µM), 0.696; in test [3] (first compound 0.06325 µM), 0.755. Moreover, the relative viability in test [3] (first compound 0.6325 µM) amounted to 0.736; in test [3] (first compound 2 µM), 0.739; in test [4] (first compound 0.02 µM), 0.398; in test [4] (first compound 0.06325 µM), 0.473; in test [4] (first compound 0.6325 µM), 0.407; in test [4] (first compound 2 µM), 0.391.
Consider PC-14, for which the relative viability in test [1] (first compound 0.2 µM) came out at 0.822; in test [1] (first compound 0.6325 µM), 0.948; in test [1] (first compound 2 µM) it was 0.863; in test [1] (first compound 6.325 µM), 0.962; in test [1] (first compound 20 µM) it was 0.989; in test [2] (first compound 0.2 µM) it was 0.24. The relative viability in test [2] (first compound 0.6325 µM) worked out at 0.356; in test [2] (first compound 2 µM), 0.256; in test [2] (first compound 6.325 µM) it was 0.259; in test [2] (first compound 20 µM) it was 0.101; in test [3] (first compound 0.02 µM), 0.81; in test [3] (first compound 0.06325 µM) it was 0.955. Besides, the relative viability in test [3] (first compound 0.6325 µM) turned out to be 0.755; in test [3] (first compound 2 µM), 0.685; in test [4] (first compound 0.02 µM) it was 0.27; in test [4] (first compound 0.06325 µM), 0.3; in test [4] (first compound 0.6325 µM), 0.273; in test [4] (first compound 2 µM), 0.27.
